# Data taken from PMC7397155, “Comparison of Chemotherapeutic Activities of Rhodamine-Based GUMBOS and NanoGUMBOS” (Molecules, 2020).
# Legend:
# [1] = tested on: MDA-MB-231 cancer cells; assay: MTT cell viability assay, MDA-MB-231 breast cancer cells; assay type: cell-based, human; conditions: 48 h incubation
# Method: (§1) Hormone-independent breast adenocarcinoma (MDA-MB-231), hormone-dependent breast adenocarcinoma (MCF7), human pancreatic carcinoma (Mia-Paca), and normal human fibroblast cell lines were purchased from American […] Culture Collection (ATCC, Manassas, VA, USA). Cell lines were cultured to 90% confluence using ATTC guidelines for cell culture prior to experimentation.
# A 96 well plate was seeded with 5000 cells/well and incubated for 24 h to allow attachment. […] These compounds were then incubated into the cells for 48 h, followed by MTT assay to determine cell viability. Firstly, 15 µL of the MTT dye solution was incubated in the cells for 3 h. The MTT dye reacts with NADPH present in live cells to form an insoluble purple formazan product. Subsequently, 100 µL of a stop solution was added to solubilize this product and halt the enzymatic reaction between NADPH and MTT. Cells were then incubated with stop solution for 1 h. The absorbance of the formazan was then measured at 570 nm using a microplate spectrophotometer. Cell viability is reported as the ratio between experimental groups and a control normalized to 100%. All measurements were performed in triplicate measurements to obtain standard error, and the reported cell viability is the average of these measurements. The IC50 was calculated using the formula:
# (§2) ((0.5−(f(a))×(b−a)+(f(b)−f(a))×a))/(f(b)−f(a)) where a is the concentration where the cell viability is above 50%, b is the concentration where the cell viability is below 50%, and f(a) and f(b) are respectively the cell viability percentages *0.01 at concentration a and b respectively.
# [2] = tested on: Hs578Bst normal cells; assay: MTT cell viability assay, Hs578Bst normal breast cells; assay type: cell-based, human; conditions: for IC50: RB and R110 GUMBOS and parent dyes, normal breast cells, 48 h incubation, MTT
# [3] = Octanol buffer partition coefficient; assay type: physicochemical; conditions: 1-octanol / pH 7.4 phosphate-citric acid buffer, 48 h stirring
# Method: Into a 20 mL vial, 1-Octanol is mixed with a pH 7.4 phosphate-citric acid buffer and stirred overnight. The two layers were separated and then a calibration curve was generated for each compound in 1-octanol using various concentrations. The phosphate-citric acid buffer was then added to one of the concentrations (Ci) and this mixture was stirred for 48 h. Subsequently, absorbance in the octanol layer was measured and the concentration (Co) calculated using the calibration curves. Later, the equation Ci − C0 = Cw was used to calculate the aqueous concentration (Cw). The octanol–water partition coefficient was then calculated using the equation Kow = […]/Cw.
# [4] = Water solubility study; assay type: physicochemical; conditions: water solubility at physiological pH
# Method: Approximately fifty milliliters of water were added to three milligrams of GUMBOS. Absorbance measurements were then acquired over time until the absorbance reached a plateau. A calibration curve for an aqueous solution of GUMBOS was then generated at a soluble concentration, and the slope of the curve was used to calculate the solubility concentration. The solubility constant (Ksp) was then calculated using this concentration.
# [5] = tested on: MiaPaca cancer cells; assay: MTT cell viability assay, MiaPaca pancreatic cancer cells; parameters: species or system human; conditions: 48 h incubation
# Method: as §1
# (§3) A 96 well plate was seeded with 5000 cells/well and incubated for 24 h to allow attachment. Serial dilution from 100 µM to 0 µM was performed for each compound. These compounds were then incubated into the cells for 48 h, followed by MTT assay to determine cell viability. Firstly, 15 µL of the MTT dye solution was incubated in the cells for 3 h. The MTT dye reacts with NADPH present in live cells to form an insoluble purple formazan product. Subsequently, 100 µL of a stop solution was added to solubilize this product and halt the enzymatic reaction between NADPH and MTT. Cells were then incubated with stop solution for 1 h. The absorbance of the formazan was then measured at 570 nm using a microplate spectrophotometer. Cell viability is reported as the ratio between experimental groups and a control normalized to 100%. All measurements were performed in triplicate measurements to obtain standard error, and the reported cell viability is the average of these measurements. The IC50 was calculated using the formula:
# as §2
# [6] = tested on: MCF7 cancer cells; assay: MTT cell viability assay, MCF7 breast cancer cells; parameters: species or system human; conditions: 48 h incubation
# Method: as §1, §3, §2
# [7] = Zeta potential of nanoGUMBOS; assay type: physicochemical; conditions: nanoGUMBOS at physiological pH (7.4)
# Text: Following examination of the hydrophobicity of these GUMBOS, nanoGUMBOS were synthesized using a simple reprecipitaiton method as described in the experimental section. TEM images in Figure 2 are a display of spherical nanoparticles with diameters of ~100 nm for both R123 and SNAFR.
# [8] = Homo sapiens, MDA-MB-231, 48 h, RB and R110 GUMBOS and parent dyes
# [9] = RB and R110 GUMBOS and parent dyes
# [10] = R123- and SNAFR-5-based nanoGUMBOS and parent dyes
smiles,measurement,setting,value
"N=c1ccc2c(-c3ccccc3C(=O)O)c3ccc(N)cc3oc-2c1 [[R110][Cl], rhodamine 110 chloride, reference compound]",IC50,[1]; [8],781 µM
same,IC50,[1]; [9],791.2 ± 2.7 µM
same,IC50,"[2]; Homo sapiens, Hs578Bst",836.1 ± 5.3 µM
same,Log Kow,[3],0.22
same,solubility thermodynamic,[4],> 700 µM
"COC(=O)c1ccccc1-c1c2ccc(=N)cc-2oc2cc(N)ccc12 [[R123][Cl], rhodamine 123, reference compound]",IC50,"[1]; Homo sapiens, MDA-MB-231, R123- and SNAFR-5-based nanoGUMBOS and parent dyes",24.3 ± 2.2 µM
same,IC50,"[5]; Homo sapiens, MIA PaCa-2, R123- and SNAFR-5-based nanoGUMBOS and parent dyes",3.1 ± 1.1 µM
same,IC50,"[6]; Homo sapiens, MCF7, R123- and SNAFR-5-based nanoGUMBOS and parent dyes",> 100 µM
same,Toxicity towards Hs578Bst normal cells,"[2]; result in words, Figure 6",slight toxicity towards normal cells
same,Log Kow,[3],0.25
CCN(CC)c1ccc2c(-c3ccccc3C(=O)O)c3ccc(=[N+](CC)CC)cc-3oc2c1.c1ccc([B-](c2ccccc2)(c2ccccc2)c2ccccc2)cc1 [[RB][TPB]],IC50,[1]; [9],77.5 ± 5.7 µM
same,IC50,[2],533.7 ± 3.3 µM
same,Log Kow,[3],1.6
COC(=O)c1ccccc1-c1c2ccc(=[NH2+])cc-2oc2cc(N)ccc12.c1ccc([B-](c2ccccc2)(c2ccccc2)c2ccccc2)cc1 [[R123][TPB]],IC50,[1]; [10],20.6 ± 3.5 µM
same,IC50,[5]; [10],2.5 ± 0.9 µM
same,IC50,[6]; [10],> 100 µM
same,Log Kow,[3],0.8
same,Zeta Potential,[7],−16.5 ± 1.4 mV
COC(=O)c1ccccc1-c1c2ccc(N)cc2[o+]c2cc(N)ccc12.O=S(=O)([N-]S(=O)(=O)C(F)(F)C(F)(F)F)C(F)(F)C(F)(F)F [[R123][BETI]],IC50,[1]; [10],17.4 ± 3.7 µM
same,IC50,[5]; [10],1.6 ± 0.7 µM
same,IC50,[6]; [10],> 100 µM
same,Log Kow,[3],1.1
same,Zeta Potential,[7],−16.8 ± 1.1 mV
CCN(CC)c1ccc2c(-c3ccccc3C(=O)O)c3ccc(=[N+](CC)CC)cc-3oc2c1.O=S(=O)([N-]S(=O)(=O)C(F)(F)C(F)(F)F)C(F)(F)C(F)(F)F [[RB][BETI]],IC50,[1]; [9],89.5 ± 3.4 µM
same,IC50,[2],540 ± 6.2 µM
same,Log Kow,[3],1.25
"CCN(CC)c1ccc2c(-c3ccccc3C(=O)O)c3ccc(=[N+](CC)CC)cc-3oc2c1 [[RB][Cl], Rhodamine B chloride, reference compound]",IC50,[1]; [8],291 ± 1.2 µM
same,IC50,"[2]; Homo sapiens, Hs578Bst",500 ± 5.2 µM
same,Log Kow,[3],1.1
